Test results: patent US20250304575A1, “COMPOUNDS AND PHARMACEUTICAL COMPOSITIONS THEREOF FOR THE TREATMENT OF NEURODEGENERATIVE DISORDERS” (Galapagos NV, priority 2022, published 2025)

Tested on: Aβ1-42-injected mice (short-term spatial memory)
Assay: Alzheimer's disease mouse model using intrahippocampal injection of oligomers of amyloid beta; forced alternation Y-maze test
Type: in vivo, C57BL6 mice
Settings: for Cumulative duration (sec) in the new arm of the Y-maze: Aβ1-42 (2 μL/side, 100 μM) injected mice, n = 12, daily treatment, Compounds 5 mg/kg p.o., Donepezil 1 mg/kg i.p., group mean, Aβ1-42 + vehicle group 78.9, sham 115.5
[1] = compared to Aβ1-42-injected, vehicle treated mice (group ID 2), 5 mg/kg p.o. daily

Experimental: This study evaluated the cognitive functions of the mice after a chronic administration of the compounds, after the ApO injury.
The forced alternation Y-maze test relies on the natural tendency of rodents to explore new environments and was used to evaluate short-term spatial memory and exploratory behavior of injured mice.
18-month-old male C57BL6 mice (Janvier Labs) were housed for acclimatation for 1 week in Neuro-Sys facilities and were maintained in a reversed 12 h light-dark cycle. The animals were group-housed (2-4 animals per cage) and maintained in room with controlled temperature (21-22° C.) and hygrometry (40-60%) and with food and water available ad libitum.
After one week of acclimatization, all the mice were subjected to a bilateral hippocampal stereotaxic surgery determined relative to the bregma according to the Paxinos and Franklin's mouse brain atlas(Yeung et al. 2020).
The Aβ1-42 preparation were done following the procedure described by Callizot (Callizot et al. 2013). Briefly, Aβ1-42 peptide (Bachem, 1071428, CAS #107761-42-2) was dissolved in the vehicle (0.5% Methylcellulose in water (w/v)), at an initial concentration of 100 μM. This solution was gently agitated for 3 days at 37° C. in the dark.
After agitation, the Aβ1-42 preparation were bilaterally injected into the stratum oriens, striatum pyramidal and striatum radiatum of the CA1 area of the hippocampus at three different depths within the CA1 region. Stereotaxic bilateral administration of 2 μL/side of Aβ1-42 preparation (100 μM, containing ˜15 mol/L of oligomers precisely measured by automatic WB), or vehicle, were bilaterally injected with a Hamilton syringe in the CA 1 area of the hippocampus (0.2 μL/min with an Elite Nanomite syringe pump).
All treatments started the day before the stereotaxic injections of A31-42 and were administrated daily until the last day of the experiment at which point different tissue samples were collected.
Test compounds were administered by oral gavage (p.o.).
Preparation with vehicle 1: The required amount of the test compound was weighted and placed in a glass tube. The compound was dissolved in 0.5% Methylcellulose in water (w/v) corresponding to 100% of the final volume and vortexed. The formulation (glass vial) was placed in an ultrasonic bath for 30 min.
Preparation with vehicle 2: The required amount of the test compound was weighted and placed in a glass tube. The compound was dissolved in a volume PEG200 corresponding to 25% of the final volume (at 4× concentration). The preparation was aliquoted in tubes protected from light and stored at 4° C. Before administration, a volume of MC (0.5%, w/v in sterile water) corresponding to 75% of the final volume (for 1× concentration) was added to the preparation and vortexed. The formulation (glass vial) was placed in an ultrasonic bath for homogenization. The glass vial containing the preparation was kept under agitation and protected from light until administration.
The Y-maze was used to assess short term memory (working memory) in mice. Spatial reference memory, which is underlined by the hippocampus, was tested by placing the test mice into the Y-maze with one arm closed off during training. After an intertrial interval, the mouse should remember which arm it has not explored previously and should visit this arm more often (Kraeuter, Guest, and Samyai 2019).

| Compound | Cumulative duration (sec) in the new arm of the Y-maze [s] | Effect on short-term spatial memory (Y-maze), day 7 post-surgery [1] | Effect on short-term spatial memory (Y-maze), day 14 post-surgery (day 14 post-surgery, compared to Aβ1-42-injected, vehicle treated mice (group ID 2), 5 mg/kg p.o. daily) |
| --- | --- | --- | --- |
| CN(C)S(=O)(=O)C1CN(c2ccc3cn(-c4ccccc4)nc3n2)C1 [Compound 66, N,N-dimethyl-1-(2-phenyl-2H-pyrazolo[3,4-b]pyridin-6-yl)azetidine-3-sulfonamide] | 104.4 | significant beneficial effects | – |
| CN(C)S(=O)(=O)C1CN(c2cc3nn(-c4ccc(F)cc4)cc3cn2)C1 [Compound 14, 1-(2-(4-fluorophenyl)-2H-pyrazolo[4,3-c]pyridin-6-yl)-N,N-dimethylazetidine-3-sulfonamide] | 112.5 | significant beneficial effects | significant beneficial effects |
